Values after ≈ are worked out from the molar mass of the structure shown. Like-named read-outs stand apart in the source and are kept apart here.
Tests used:
[1] = system: VEGF receptor-2 and angiogenesis cellular signaling pathways; details: 25 µM; cited from earlier work
[2] = system: PC3 (human prostate adenocarcinoma); test: MTT cytotoxicity assay on PC3; assay type: cell-based; details: 24 h, mean ± SD, read-out: Cytotoxic activity IC50, PC3
Procedure: (§1) Cancer cell lines, including PC3 NCBI-C427 (human prostate adenocarcinoma), HeLa NCBI-C115 (human cervix carcinoma), MCF7 NCBI-C135 (human breast adenocarcinoma), and a normal cell line, human umbilical vein endothelial cell (HUVEC) NCBI-C554, were purchased from the Pasteur Institute of Tehran, Iran. Cells were cultured and maintained in Dulbecco’s modified Eagle’s medium (DMEM) supplemented with 10% fetal bovine serum (FBS) and 2% (v/v) streptomycin-penicillin in a humidified incubator with a 5% CO2 atmosphere at 37°C. Passages 2 to 3 of the cells were utilized for the cytotoxicity assay ([18]).
(§2) The MTT assay was used to determine the cytotoxic activities of the MeOH extract, isolated compounds (1 - 3), and doxorubicin (as a positive control) on human cancer cell lines. For the MTT assay, concentrations (1, 5, 10, 25, 50, 100 µg) of the samples were prepared in DMEM as diluent and incubated with cells (10^5 cells/mL) for 24 hours in 96-well plates. Then, the MTT powder was added to the wells and incubated for 4 hours at 37°C. Absorbance was measured at 570 nm using a microplate reader. The experiment was performed in triplicate, and cell viability percentages were calculated by the following equation: […]. The negative control was untreated cells. The cytotoxicity IC50 value for the extracts was defined as the concentration that reduces 50% cell viability ([19]).

[3] = system: MCF7 (human breast adenocarcinoma); test: MTT cytotoxicity assay on MCF-7; assay type: cell-based; details: MCF7, 24 h, mean ± SD, read-out: Cytotoxic activity IC50, MCF-7
Procedure: as §1, §2

[4] = system: HeLa (human cervix carcinoma); test: MTT cytotoxicity assay on HeLa; assay type: cell-based; details: 24 hours, mean ± SD, read-out: Cytotoxic activity IC50, HeLa
Procedure: as §1, §2

[5] = MTT cytotoxicity assay on HUVEC (normal cell line); assay type: cell-based; details: human, HUVEC (umbilical vein endothelial cells), mean ± SD, read-out: Cytotoxic activity IC50, HUVEC
Procedure: as §1, §2

[6] = system: chicken chorioallantoic membrane (CAM); test: Chick chorioallantoic membrane (CAM) anti-angiogenesis assay; assay type: in vivo; details: Gallus gallus, read-out: Anti-angiogenesis IC50 (50% inhibition of angiogenesis)
Procedure: The anti-angiogenesis activities of the MeOH extract and isolated compounds ([1]-[3]) were evaluated using the chicken chorioallantoic membrane (CAM) model. Briefly, pathogen-free fertilized chicken eggs were purchased from Baharan Parent Stock Company, Kermanshah, Iran, and incubated at 37°C with 75% humidity for 7 days. Then, square windows (1 cm^2) were opened in the outer shell of the eggs, and different concentrations of samples were loaded. After 48 hours, the zones around the discs were photographed with a digital camera and macroscopically assayed for neovascular zones of CAM in each treatment group. The effects on local vessel density within a 10 cm^2 area surrounding the windows were measured in each treatment group using AngioSoft software (V, 2019) ([12], [13]). The study was done in triplicate for each experimental group (8 eggs). The anti-angiogenesis IC50 value for the extracts was reported as the concentration that reduces 50% angiogenesis compared to the blank disk.
The results of the anti-angiogenesis activities of isolated flavonoids (1 - 3) and the MeOH extract of A. colchicifolium bulbs on the CAM model of angiogenesis are shown in Figure 2A and B. The IC50 of each compound was considered as the concentration that caused 50% inhibition of angiogenesis in a 100 mm^2 area surrounding each sample disc compared to the negative control disc (distilled water).

mice VEGF serum levels = system: mice VEGF serum levels; design: method as in PMID 23867787; details: 20 mg/kg; by reducing mice VEGF serum levels; cited from earlier work
CAM model = details: 10 nM; by blocking matrix metalloproteinase-2 gene expression; cited from earlier work
[7] = CAM model, 48 hours, compared to negative control disc

| Structure (SMILES) | Anti-angiogenesis activities [1] | IC50 [2] [µg/mL] | IC50 [3] [µg/mL] | IC50 [4] [µg/mL] | IC50 at 24 h [5] [µg/mL] | IC50 [6, 7] [µg/mL] | Inhibition of angiogenesis (mice VEGF serum levels) | IC50 ([6]; 48 h) [µg/mL] | Anti-angiogenesis on the CAM model (CAM model) |
| --- | --- | --- | --- | --- | --- | --- | --- | --- | --- |
| COc1ccc(-c2oc3c(C)c(OC)cc(OC)c3c(=O)c2OC)cc1OC [8-methylquercetin-3,5,7,3',4'-pentamethyl ether, reference compound] | demonstrated anti-angiogenesis activities | – | – | – | – | – | – | – | – |
| C[C@@H]1O[C@@H](OC[C@H]2O[C@@H](Oc3c(-c4ccc(O)c(O)c4)oc4cc(O)cc(O)c4c3=O)[C@H](O)[C@@H](O)[C@@H]2O)[C@H](O)[C@H](O)[C@H]1O [Compound 1, quercetin 3-O-rutinoside] | – | 2.96 ± 0.16 (≈ 4.85 µM) | 3.16 ± 0.3 (≈ 5.18 µM) | 6.95 ± 0.32 (≈ 11.4 µM) | 9.35 ± 0.8 (≈ 15.3 µM) | 7.12 ± 0.1 (≈ 11.7 µM) | inhibited angiogenesis | – | – |
| COc1cc(-c2oc3cc(O)cc(O)c3c(=O)c2O[C@@H]2O[C@H](CO)[C@@H](O)[C@H](O)[C@H]2O)ccc1O [Compound 2, isorhamnetin 3-O-glucoside] | – | 1.72 ± 0.02 (≈ 3.6 µM) | 2.58 ± 0.21 (≈ 5.39 µM) | 8.43 ± 0.32 (≈ 17.6 µM) | 9.96 ± 0.37 (≈ 20.8 µM) | 6 ± 0.21 (≈ 12.5 µM) | – | – | – |
| O=c1c(O)c(-c2ccc(O)c(O)c2)oc2cc(O)cc(O)c12 [Compound 3, quercetin] | demonstrated anti-angiogenesis activities | ≤ 3 | ≤ 3 | 6.17 ± 0.13 (≈ 20.4 µM) | 7.23 ± 0.29 (≈ 23.9 µM) | – | – | 5.3 ± 0.3 (≈ 17.5 µM) | exhibited anti-angiogenesis |
| COc1cccc2c1C(=O)c1c(O)c3c(c(O)c1C2=O)C[C@@](O)(C(=O)CO)C[C@@H]3O[C@H]1C[C@H](N)[C@H](O)[C@H](C)O1 [Doxorubicin, doxorubicin, reference compound] | – | 0.051 ± 0.004 (≈ 0.0938 µM) | 0.034 ± 0.01 (≈ 0.0626 µM) | 0.066 ± 0.007 (≈ 0.121 µM) | 0.045 ± 0.006 (≈ 0.0828 µM) | – | – | – | – |
